Where two headings read alike, the source gives them in different places.
How the values were obtained:
[1] = target: hERG channels (Homo sapiens (Human), UniProt Q12809); assay: hERG Manual Patch Clamp Assay; format: cell-based; details: human, HEK 293 cells stably expressing hERG channels, pH 7.4, 1 uM, read-out: hERG EP % Inh @ 1 uM
Method: hERG electrophysiology assay: The experimental compounds were assessed for hERG activity on HEK 293 cells stably expressing hERG channels using patch clamp technique. Coverslips plated with hERG expressing cells were placed in the experimental chamber and were perfused with a solution composed of (in mM): 140 NaCl, 4 KCl, 1.8 CaCl2, 1 MgCl2, 10 Glucose, 10 HEPES (pH 7.4, NaOH) at room temperature. Borosilicate patch pipettes had tip resistances of 2-4 Mohms when filled with an internal solution containing: 130 KCl, 1 MgCl2, 1 CaCl2, 10 EGTA, 10 HEPES, 5 ATP-K2 (pH 7.2, KOH). The cells were clamped at −80 mV in whole cell configuration using an Axopatch 200B (Axon instruments, Union City, Calif.) patch clamp amplifier controlled by pClamp (Axon instruments) software. Upon formation of a gigaseal, the following voltage protocol was repeatedly (0.05 Hz) applied to record tail currents: depolarization step from −80 mV to +20 mV for 2 seconds followed by a hyperpolarization step to −65 mV (3 seconds) to elicit tail currents. Compounds were applied after stabilization of tail current. First, tail currents were recorded in presence of extracellular solution alone (control) and subsequently, in extracellular solution containing increasing compound concentrations. Each compound concentration was applied for 2-5 minutes. The percentage inhibition at each concentration was calculated as reduction in peak tail current with respect to the peak tail current recorded in the presence of control solution. Data analysis was performed in a custom made template. The percent inhibitions at different concentrations were plotted to obtain a concentration response curve, which was subsequently fitted with a four parameter equation to calculate hERG IC50 value.

[2] = target: T1, hROMK (human Kir1.1) (Homo sapiens (Human), UniProt P48048); assay: cell-based; details: CHO T-Rex hROMK stable cell line; thallium flux; 10-point concentration response curve; read-out: Human ROMK Th Flux IC50
T1 sequence (P48048 whole entry): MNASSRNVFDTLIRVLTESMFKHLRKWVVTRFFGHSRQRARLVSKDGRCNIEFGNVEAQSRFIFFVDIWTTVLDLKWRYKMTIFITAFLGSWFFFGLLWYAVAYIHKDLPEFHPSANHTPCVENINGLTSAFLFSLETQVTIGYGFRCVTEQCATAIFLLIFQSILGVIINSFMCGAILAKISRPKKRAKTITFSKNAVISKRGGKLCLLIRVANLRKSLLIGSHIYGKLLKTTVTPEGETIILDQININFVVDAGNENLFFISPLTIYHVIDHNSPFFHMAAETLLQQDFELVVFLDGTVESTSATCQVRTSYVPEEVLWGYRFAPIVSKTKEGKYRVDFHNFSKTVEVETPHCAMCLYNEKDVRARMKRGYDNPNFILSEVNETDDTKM

[3] = target: T1, hROMK (human Kir1.1); assay: cell-based; format: cell-based; details: whole-cell manual patch clamp, CHO T-Rex hROMK stable cell line, voltage step to -120 mV, Ba2+-subtracted hROMK current; read-out: ROMK EP IC50
Method: ROMK Manual Patch Clamp Assay
Cell culture conditions: Cells were maintained in conditions similar to those for Thallium flux assay. hROMK channel expression was induced by adding 0.6 μg/ml of Doxycycline 16-24 hrs prior to the experiments. On the day of experiment, the cells were dissociated using Versene, resuspended in growth media and plated onto coverslips 15 minutes prior to use.
Electrophysiology: The coverslip plated with cells was placed in the experiment chamber perfused with bath solution composed of (in mM): 135 NaCl, 5 KCl, 2 CaCl2, 1 MgCl2, 10 HEPES, 5 Glucose (pH 7.4). Patch pipettes with resistance between 2-5 Megaohms, when filled with a solution containing (in mM): 135 KCl, 1 EGTA, 1 MgCl2, 10 HEPES, 2 Na2ATP (pH 7.3), were used to form gigaseals. The cells were voltage clamped at −75 mV in whole-cell configuration using an Axopatch 200b or Multiclamp 700b (Molecular Devices) amplifier controlled by pClamp Software (Molecular Devices). The current was recorded by applying a voltage step to −120 mV every 10 seconds. […] At the end of the experiment, the cells were perfused with bath solution containing 2 mM Ba^2+ to isolate the contribution of hROMK current.
Data analysis: Raw current values (5 traces each for control, different compound concentration and Ba^2+ treatment groups) were exported from Clampfit into Microsoft Excel where the current remaining after application of Ba^2+ was subtracted from raw current to obtain hROMK specific current.

hERG channels, sequence (Q12809 whole entry): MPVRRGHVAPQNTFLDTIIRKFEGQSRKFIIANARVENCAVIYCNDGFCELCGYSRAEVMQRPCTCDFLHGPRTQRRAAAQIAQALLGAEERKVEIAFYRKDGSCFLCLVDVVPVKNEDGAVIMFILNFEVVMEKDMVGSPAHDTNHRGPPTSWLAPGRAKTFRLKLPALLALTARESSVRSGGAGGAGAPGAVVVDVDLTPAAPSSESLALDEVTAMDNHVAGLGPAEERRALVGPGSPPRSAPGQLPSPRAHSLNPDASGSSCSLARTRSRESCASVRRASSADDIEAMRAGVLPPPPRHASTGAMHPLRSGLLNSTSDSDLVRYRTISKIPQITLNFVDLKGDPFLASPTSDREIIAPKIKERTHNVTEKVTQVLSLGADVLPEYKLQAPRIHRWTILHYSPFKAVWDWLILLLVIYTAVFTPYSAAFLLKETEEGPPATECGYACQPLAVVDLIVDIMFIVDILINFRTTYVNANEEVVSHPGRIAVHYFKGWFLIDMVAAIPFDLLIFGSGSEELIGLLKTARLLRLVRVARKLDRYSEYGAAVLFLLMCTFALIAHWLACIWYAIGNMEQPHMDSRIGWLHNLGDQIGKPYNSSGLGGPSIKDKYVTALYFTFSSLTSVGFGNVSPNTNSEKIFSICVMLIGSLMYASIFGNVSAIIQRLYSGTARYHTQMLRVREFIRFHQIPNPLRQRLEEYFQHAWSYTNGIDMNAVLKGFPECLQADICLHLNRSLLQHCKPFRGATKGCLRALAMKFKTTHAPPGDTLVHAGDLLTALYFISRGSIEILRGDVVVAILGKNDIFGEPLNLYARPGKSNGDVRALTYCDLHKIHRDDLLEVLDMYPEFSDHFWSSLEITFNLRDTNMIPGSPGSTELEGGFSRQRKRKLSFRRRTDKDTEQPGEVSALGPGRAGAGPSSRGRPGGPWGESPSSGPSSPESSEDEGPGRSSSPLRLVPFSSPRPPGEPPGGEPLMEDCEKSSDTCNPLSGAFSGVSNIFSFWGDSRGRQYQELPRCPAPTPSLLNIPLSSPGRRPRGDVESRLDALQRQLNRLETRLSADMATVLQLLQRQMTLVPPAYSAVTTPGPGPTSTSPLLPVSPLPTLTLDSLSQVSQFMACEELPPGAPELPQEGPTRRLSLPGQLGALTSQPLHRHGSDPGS

## COc1cc(-n2cc(CN3CC[C@@H](O)[C@H](c4ccc5c(c4C)COC5=O)C3)n(C)c2=O)ncc1C#N [Example 171-I, 6-(4-(((3R,4R)-4-hydroxy-3-(4-methyl-1-oxo-1,3-dihydroisobenzofuran-5-yl)piperidin-1-yl)methyl)-3-methyl-2-oxo-2,3-dihydro-1H-imidazol-1-yl)-4-methoxynicotinonitrile]
[1]
  inhibition at 1 µM: 16%
[2]
  IC50: 27 nM
[3]
  IC50: 26 nM

## COc1cc(-n2ncc(CN3CCN[C@H](c4ccc5c(c4C)COC5=O)C3)n2)nc(C)c1C#N [Example 188-I, (R)-4-methoxy-2-methyl-6-(4-((3-(4-methyl-1-oxo-1,3-dihydroisobenzofuran-5-yl)piperazin-1-yl)methyl)-2H-1,2,3-triazol-2-yl)nicotinonitrile]
[1]
  inhibition at 1 µM: 18%
[2]
  IC50: 37 nM
[3]
  IC50: 18 nM

## Cc1cc(-c2nnc(CN3C[C@@H](c4ccc5c(c4C)COC5=O)N[C@@H](C)C3)o2)ncc1C#N [Example 191-I, 4-methyl-6-(5-(((3S,5R)-3-methyl-5-(4-methyl-1-oxo-1,3-dihydroisobenzofuran-5-yl)piperazin-1-yl)methyl)-1,3,4-oxadiazol-2-yl)nicotinonitrile]
[1]
  inhibition at 1 µM: 4.3%
[2]
  IC50: 29 nM
[3]
  IC50: 21 nM

## Cc1cc(-n2cc(CN3C[C@H](CO)N(C)[C@H](c4ccc5c(c4C)COC5=O)C3)cn2)ncc1C#N [Example 195-I, 6-(4-(((3R,5R)-3-(hydroxymethyl)-4-methyl-5-(4-methyl-1-oxo-1,3-dihydroisobenzofuran-5-yl)piperaizn-1-yl)methyl)-1H-pyrazol-1-yl)-4-methylnicotinonitrile]
[1]
  inhibition at 1 µM: 5.9%
[2]
  IC50: 66 nM
[3]
  IC50: 79 nM

## Cc1c([C@@H]2CN(Cc3ccc(-c4ccc5oc(=O)n(C)c5c4)nc3)CCO2)ccc2c1COC2=O [Example 3-I, (R)-3-methyl-5-(5-((2-(4-methyl-1-oxo-1,3-dihydroisobenzofuran-5-yl)morpholino)methyl)pyridin-2-yl)benzo[d]oxazol-2(3H)-one]
[1]
  inhibition at 1 µM: 26%
[2]
  IC50: 210 nM
[3]
  IC50: 44 nM

## Cc1cn(-c2ncc(CN3CCN[C@H](c4ccc5c(c4C)COC5=O)C3)cn2)cn1 [Example 216-I]
[1]
  inhibition at 1 µM: 5.6%
[2]
  IC50: 25 nM
[3]
  IC50: 14 nM

## Cc1cc(-c2cc(CN3C[C@@H](c4ccc5c(c4C)COC5=O)N[C@@H](C)C3)no2)ncc1C#N [Example 210-I, 4-methyl-6-(3-(((3S,5R)-3-methyl-5-(4-methyl-1-oxo-1,3-dihydroisobenzofuran-5-yl)piperazin-1-yl)methyl)isoxazol-5-yl)nicotinonitrile]
[1]
  inhibition at 1 µM: 5.2%
[2]
  IC50: 41 nM
[3]
  IC50: 20 nM

## COc1cc(-n2cc(CN3CCN[C@H](c4ccc5c(c4C)COC5=O)C3)nn2)ncc1C#N [Example 255-I, (R)-4-methoxy-6-(4-((3-(4-methyl-1-oxo-1,3-dihydroisobenzofuran-5-yl)piperazin-1-yl)methyl)-1H-1,2,3-triazol-1-yl)nicotinonitrile]
[1]
  inhibition at 1 µM: 9.5%
[2]
  IC50: 33 nM
[3]
  IC50: 9.1 nM

## Cc1c([C@@H]2CN(Cc3ccc(-n4cnc(C#N)c4)nc3)CCN2)ccc2c1COC2=O [Example 65-I, (R)-1-(5-((3-(4-methyl-1-oxo-1,3-dihydroiso-benzofuran-5-yl)piper-azin-1-yl)methyl)pyri-din-2-yl)-1H-imidazole-4-carbonitrile]
[1]
  inhibition at 1 µM: 21%
[2]
  IC50: 14 nM
[3]
  IC50: 9.8 nM

## Cc1cc(-n2ncc(C(C)N3CCN[C@H](c4ccc5c(c4C)COC5=O)C3)n2)ncc1C#N (single isomer, unassigned) [Example 121-I]
[1]
  inhibition at 1 µM: 10%
[2]
  IC50: 31 nM
[3]
  IC50: 740 nM

## Cc1cn(-c2ncc(CN3CCN[C@H](c4ccc5c(c4C)COC5=O)C3)cn2)c(C)n1 [Example 139-I, (R)-5-(4-((2-(2,4-dimethyl-1H-imidazol-1-yl)pyrimidin-5-yl)methyl)piperazin-2-yl)-4-methylisobenzofuran-1(3H)-one]
[1]
  inhibition at 1 µM: 6.6%
[2]
  IC50: 36 nM
[3]
  IC50: 30 nM
